This passage reports TGI results from PubChem BioAssay (NCI).

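Dose response: 5 concentrations. Exposure: 48 h. Format: 96-well plates. Endpoint: linear interpolation; highest concentration if not reached. TGI marks complete inhibition of growth.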 Where a SMILES comes first, the peptide text is derived from it. The star is where a group is joined. X36 = O=C(c1ccc(-c2ccc(Cl)cc2Cl)o1)*

The test system of one assay is UACC-62 melanoma. The assay is described as follows: DTP human tumour cell line panel, 48 h.
Take `Cc1ccc2c(=O)cc(-c3cccs3)[nH]c2n1`: the concentration for total growth inhibition (TGI) was greater than 100 µM.
Still for that read-out and setting: under `O=c1oc2ccccc2c(Nc2ccc3c(c2)Oc2ccccc2O3)c1[N+](=O)[O-]` stands 37.1 µM; under `CCC(C)C(NC(=O)CNC(=O)C(Cc1ccccc1)NC(=O)C1CCCN1C(=O)c1ccc(-c2ccc(Cl)cc2Cl)o1)C(=O)OC` (centres undefined) (X36-PFGI-OMe; configuration not given here), greater than 100 µM.

The next assay relates to UACC-257 melanoma. Kind of assay: DTP human tumour cell line panel, 48 h.
In turn, `CCOC(=O)/C=C(\C(=O)OCC)n1cc(C)c(=O)n(Cc2cnnn2CCCCOC(C)=O)c1=O` returned a TGI of 31.7 µM.
Same read-out and setting: under `Cc1ccc2c(=O)cc(-c3cccs3)[nH]c2n1` stands greater than 100 µM.
Molecule `O=c1oc2ccccc2c(Nc2ccc3c(c2)Oc2ccccc2O3)c1[N+](=O)[O-]` yielded a TGI of 91.2 µM.
`CCC(C)C(NC(=O)CNC(=O)C(Cc1ccccc1)NC(=O)C1CCCN1C(=O)c1ccc(-c2ccc(Cl)cc2Cl)o1)C(=O)OC` (centres undefined) (X36-PFGI-OMe; configuration not given here) showed a TGI of 67.2 µM.

A further assay deals with NCI-H23 lung. The assay is described as follows: DTP human tumour cell line panel, 48 h.
Consider `CCOC(=O)/C=C(\C(=O)OCC)n1cc(C)c(=O)n(Cc2cnnn2CCCCOC(C)=O)c1=O`, for which the TGI was found to be 36.8 µM.
The same measure, in the same setting: under `Cc1ccc2c(=O)cc(-c3cccs3)[nH]c2n1` stands greater than 63.6 µM; under `O=c1oc2ccccc2c(Nc2ccc3c(c2)Oc2ccccc2O3)c1[N+](=O)[O-]`, 46.1 µM.
Turning to `CCC(C)C(NC(=O)CNC(=O)C(Cc1ccccc1)NC(=O)C1CCCN1C(=O)c1ccc(-c2ccc(Cl)cc2Cl)o1)C(=O)OC` (centres undefined) (X36-PFGI-OMe; configuration not given here), the TGI was greater than 100 µM.

The subject of a further assay is SR leukemia. Kind of assay: DTP human tumour cell line panel, 48 h.
`CCOC(=O)/C=C(\C(=O)OCC)n1cc(C)c(=O)n(Cc2cnnn2CCCCOC(C)=O)c1=O` showed a TGI of 5.86 µM.
`Cc1ccc2c(=O)cc(-c3cccs3)[nH]c2n1`: the TGI is greater than 100 µM.
On the same count and under the same terms, under `O=c1oc2ccccc2c(Nc2ccc3c(c2)Oc2ccccc2O3)c1[N+](=O)[O-]` stands greater than 100 µM; under `CCC(C)C(NC(=O)CNC(=O)C(Cc1ccccc1)NC(=O)C1CCCN1C(=O)c1ccc(-c2ccc(Cl)cc2Cl)o1)C(=O)OC` (centres undefined) (X36-PFGI-OMe; configuration not given here), 95.6 µM.

The next assay deals with MDA-N. Kind of assay: DTP human tumour cell line panel, 48 h.
The molecule `CCOC(=O)/C=C(\C(=O)OCC)n1cc(C)c(=O)n(Cc2cnnn2CCCCOC(C)=O)c1=O` yielded a TGI of 55.8 µM.
Still for that read-out and setting: under `Cc1ccc2c(=O)cc(-c3cccs3)[nH]c2n1` stands 3.78 µM.
Still for that read-out and setting: under `O=c1oc2ccccc2c(Nc2ccc3c(c2)Oc2ccccc2O3)c1[N+](=O)[O-]` stands greater than 100 µM; under `CCC(C)C(NC(=O)CNC(=O)C(Cc1ccccc1)NC(=O)C1CCCN1C(=O)c1ccc(-c2ccc(Cl)cc2Cl)o1)C(=O)OC` (centres undefined) (X36-PFGI-OMe; configuration not given here), greater than 100 µM.

A further assay deals with SK-OV-3 ovarian. The assay is described as follows: DTP human tumour cell line panel, 48 h.
On to `CCOC(=O)/C=C(\C(=O)OCC)n1cc(C)c(=O)n(Cc2cnnn2CCCCOC(C)=O)c1=O`, for which the TGI is greater than 92.4 µM.
The same measure, in the same setting: the value for `Cc1ccc2c(=O)cc(-c3cccs3)[nH]c2n1` was greater than 100 µM; that for `O=c1oc2ccccc2c(Nc2ccc3c(c2)Oc2ccccc2O3)c1[N+](=O)[O-]` was 40.9 µM; that for `CCC(C)C(NC(=O)CNC(=O)C(Cc1ccccc1)NC(=O)C1CCCN1C(=O)c1ccc(-c2ccc(Cl)cc2Cl)o1)C(=O)OC` (centres undefined) (X36-PFGI-OMe; configuration not given here) was greater than 100 µM.

The next assay relates to NCI/ADR-RES ovarian. Kind of assay: DTP human tumour cell line panel, 48 h.
The molecule `CCOC(=O)/C=C(\C(=O)OCC)n1cc(C)c(=O)n(Cc2cnnn2CCCCOC(C)=O)c1=O` displayed a TGI of 35.8 µM.
Same read-out and setting: the value for `Cc1ccc2c(=O)cc(-c3cccs3)[nH]c2n1` was 11.9 µM; that for `O=c1oc2ccccc2c(Nc2ccc3c(c2)Oc2ccccc2O3)c1[N+](=O)[O-]` was 69.4 µM.
Take `CCC(C)C(NC(=O)CNC(=O)C(Cc1ccccc1)NC(=O)C1CCCN1C(=O)c1ccc(-c2ccc(Cl)cc2Cl)o1)C(=O)OC` (centres undefined) (X36-PFGI-OMe; configuration not given here): the TGI is greater than 100 µM.

The test system of a further assay is M14 melanoma. The assay is described as follows: DTP human tumour cell line panel, 48 h.
As to `CCOC(=O)/C=C(\C(=O)OCC)n1cc(C)c(=O)n(Cc2cnnn2CCCCOC(C)=O)c1=O`, the concentration for total growth inhibition (TGI) turned out to be 86.2 µM.
Consider `Cc1ccc2c(=O)cc(-c3cccs3)[nH]c2n1`, for which the TGI is greater than 100 µM.
The same measure, in the same setting: under `O=c1oc2ccccc2c(Nc2ccc3c(c2)Oc2ccccc2O3)c1[N+](=O)[O-]` stands greater than 100 µM.
The same measure, in the same setting: the value for `CCC(C)C(NC(=O)CNC(=O)C(Cc1ccccc1)NC(=O)C1CCCN1C(=O)c1ccc(-c2ccc(Cl)cc2Cl)o1)C(=O)OC` (centres undefined) (X36-PFGI-OMe; configuration not given here) was greater than 100 µM.

Another assay concerns T-47D breast. The assay is described as follows: DTP human tumour cell line panel, 48 h.
The molecule `CCOC(=O)/C=C(\C(=O)OCC)n1cc(C)c(=O)n(Cc2cnnn2CCCCOC(C)=O)c1=O` had a TGI greater than 51 µM.
Still for that read-out and setting: the value for `Cc1ccc2c(=O)cc(-c3cccs3)[nH]c2n1` was greater than 67.7 µM; that for `O=c1oc2ccccc2c(Nc2ccc3c(c2)Oc2ccccc2O3)c1[N+](=O)[O-]` was 79.1 µM.
On the same count and under the same terms, the value for `CCC(C)C(NC(=O)CNC(=O)C(Cc1ccccc1)NC(=O)C1CCCN1C(=O)c1ccc(-c2ccc(Cl)cc2Cl)o1)C(=O)OC` (centres undefined) (X36-PFGI-OMe; configuration not given here) was greater than 100 µM.

A further assay deals with IGROV1 ovarian. The assay is described as follows: DTP human tumour cell line panel, 48 h.
`CCOC(=O)/C=C(\C(=O)OCC)n1cc(C)c(=O)n(Cc2cnnn2CCCCOC(C)=O)c1=O` yielded a TGI of 28.1 µM.
On the same count and under the same terms, under `Cc1ccc2c(=O)cc(-c3cccs3)[nH]c2n1` stands greater than 100 µM; under `O=c1oc2ccccc2c(Nc2ccc3c(c2)Oc2ccccc2O3)c1[N+](=O)[O-]`, 48.9 µM.
The molecule `CCC(C)C(NC(=O)CNC(=O)C(Cc1ccccc1)NC(=O)C1CCCN1C(=O)c1ccc(-c2ccc(Cl)cc2Cl)o1)C(=O)OC` (centres undefined) (X36-PFGI-OMe; configuration not given here) displayed a TGI greater than 100 µM.

A further assay relates to HS 578T breast. The assay is described as follows: DTP human tumour cell line panel, 48 h.
In the case of `CCOC(=O)/C=C(\C(=O)OCC)n1cc(C)c(=O)n(Cc2cnnn2CCCCOC(C)=O)c1=O`, the TGI is greater than 66.4 µM.
`Cc1ccc2c(=O)cc(-c3cccs3)[nH]c2n1` gave a TGI greater than 71.4 µM.
For `O=c1oc2ccccc2c(Nc2ccc3c(c2)Oc2ccccc2O3)c1[N+](=O)[O-]`, the TGI worked out at 82.8 µM.
In turn, `CCC(C)C(NC(=O)CNC(=O)C(Cc1ccccc1)NC(=O)C1CCCN1C(=O)c1ccc(-c2ccc(Cl)cc2Cl)o1)C(=O)OC` (centres undefined) (X36-PFGI-OMe; configuration not given here) gave a TGI greater than 100 µM.

In a further assay the test system is HL-60(TB) leukemia. The assay is described as follows: DTP human tumour cell line panel, 48 h.
Molecule `CCOC(=O)/C=C(\C(=O)OCC)n1cc(C)c(=O)n(Cc2cnnn2CCCCOC(C)=O)c1=O` gave a total growth inhibition concentration (TGI) of 6.73 µM.
The same measure, in the same setting: under `Cc1ccc2c(=O)cc(-c3cccs3)[nH]c2n1` stands 25.5 µM; under `O=c1oc2ccccc2c(Nc2ccc3c(c2)Oc2ccccc2O3)c1[N+](=O)[O-]`, greater than 100 µM.
`CCC(C)C(NC(=O)CNC(=O)C(Cc1ccccc1)NC(=O)C1CCCN1C(=O)c1ccc(-c2ccc(Cl)cc2Cl)o1)C(=O)OC` (centres undefined) (X36-PFGI-OMe; configuration not given here): the TGI was greater than 100 µM.

In another assay the test system is K-562 leukemia. Kind of assay: DTP human tumour cell line panel, 48 h.
With `CCOC(=O)/C=C(\C(=O)OCC)n1cc(C)c(=O)n(Cc2cnnn2CCCCOC(C)=O)c1=O`, the TGI is greater than 35.9 µM.
Same read-out and setting: the value for `Cc1ccc2c(=O)cc(-c3cccs3)[nH]c2n1` was greater than 100 µM; that for `O=c1oc2ccccc2c(Nc2ccc3c(c2)Oc2ccccc2O3)c1[N+](=O)[O-]` was greater than 100 µM.
Same read-out and setting: under `CCC(C)C(NC(=O)CNC(=O)C(Cc1ccccc1)NC(=O)C1CCCN1C(=O)c1ccc(-c2ccc(Cl)cc2Cl)o1)C(=O)OC` (centres undefined) (X36-PFGI-OMe; configuration not given here) stands greater than 100 µM.

The subject of a further assay is NCI-H522 lung. The assay is described as follows: DTP human tumour cell line panel, 48 h.
With `CCOC(=O)/C=C(\C(=O)OCC)n1cc(C)c(=O)n(Cc2cnnn2CCCCOC(C)=O)c1=O`, the TGI came to 3.33 µM.
`Cc1ccc2c(=O)cc(-c3cccs3)[nH]c2n1` had a TGI greater than 47.4 µM.
On the same count and under the same terms, the value for `O=c1oc2ccccc2c(Nc2ccc3c(c2)Oc2ccccc2O3)c1[N+](=O)[O-]` was 65.5 µM; that for `CCC(C)C(NC(=O)CNC(=O)C(Cc1ccccc1)NC(=O)C1CCCN1C(=O)c1ccc(-c2ccc(Cl)cc2Cl)o1)C(=O)OC` (centres undefined) (X36-PFGI-OMe; configuration not given here) was greater than 100 µM.

The next assay has as its system ACHN renal. The assay is described as follows: DTP human tumour cell line panel, 48 h.
Molecule `CCOC(=O)/C=C(\C(=O)OCC)n1cc(C)c(=O)n(Cc2cnnn2CCCCOC(C)=O)c1=O` came in with a TGI of 4.83 µM.
Still for that read-out and setting: the value for `Cc1ccc2c(=O)cc(-c3cccs3)[nH]c2n1` was greater than 100 µM; that for `O=c1oc2ccccc2c(Nc2ccc3c(c2)Oc2ccccc2O3)c1[N+](=O)[O-]` was 32.7 µM.
On the same count and under the same terms, the value for `CCC(C)C(NC(=O)CNC(=O)C(Cc1ccccc1)NC(=O)C1CCCN1C(=O)c1ccc(-c2ccc(Cl)cc2Cl)o1)C(=O)OC` (centres undefined) (X36-PFGI-OMe; configuration not given here) was greater than 100 µM.
